{
  "source": "patent US20260182569A1",
  "about": "“SMART BIOSTIMULANT DELIVERY FOR PLANT GROWTH AND DEVELOPMENT” (King Abdullah University of Science and Technology, priority 2022, published 2026)",
  "key": {"[1]": {"test_system": "Capsicum (C. annuum L. var. California Wonder)", "assay": "Capsicum field trial, growth and yield", "format": "in vivo", "procedure": "FIG. 10C illustrates a schematic representation of the final product utilized for soil treatment, according to some embodiments. The final products included ZIF-8, MiZax-3, and ZIF-8@MiZax-3. These products were added to the sand/soil for the field experiment. FIG. 10D illustrates pictures of a field experiment utilizing ZIF-8@MiZax-3, according to some embodiments. Capsicum (C. annuum L. var. California Wonder) seedlings used for the field trial were initially germinated in soil and grown until the 4-week-old stage in a greenhouse under a semi-controlled environment adjusted to 28° C. (day)/26° C. (night) temperature, under 12 hours-light photoperiod with 60% humidity for nursery. During the nursery period, seedlings were given Hoagland solution to boost their growth before transferring to the field. The uniformly selected seedlings were transferred to the field during the winter season. The field used for the capsicum trial for testing ZIF-8, MiZax-3, and ZIF-8@MiZax-3 was divided into plots and treatments were allocated by following randomized complete block design (RCBD) with three replications as previously described. Each plot size was around 2 m×1.2 m with a planting distance of 50 cm×60 cm (8 plants/plot). After a week of acclimation, the first soil treatments were completed by mixing ZIF-8 (˜33.3 mg/L soil), MiZax-3 (˜1.38 mg/L soil), and ZIF-8@MiZax-3 (˜33.3 mg/L soil) directly on top of each plant stem on the soil surface. The treatments were repeated twice with a month gap in between. Plants were watered with a drip irrigation system twice a day, with an average of half a liter of water per individual. Plant phenotyping data were collected until 13 weeks after transplanting (13WAT) stage to the field. FIG. 11B illustrates a graph of the number of buds per individual at 4WAT, according to some embodiments. […] Two consecutive harvests were completed to compare the total fresh fruit yield harvested per total number of plants (n=24) between treatments and mock. The ZIF-8, MiZax-3 and ZIF-8@MiZax-3 treatments enhanced the total yield by 26.37%, 31.76% and 35.11%, respectively. […] In addition, zinc fertilizers can alter the microbial communities in the rhizosphere, which promotes plant growth and eventually increases yield."}, "pepper fruits": {"test_system": "pepper fruits", "assay": "LC-MS analysis of pepper fruits from field trial for MiZax-3", "format": "in vivo"}, "[2]": {"assay": "Thermal stability in amino acid media, PBS and HEPES, 45° C. for 24 hours (UV-vis)", "format": "physicochemical", "details": "amino acid and buffer (PBS, HEPES) solutions", "description": "Organic matter is combined with more than 90% of the nitrogen sources present in the soil, with 20%-40% of this ratio in amino form. The amino acid (AA) composition of soil organic matter depends on several factors, for instance, pH, plant interaction with other microorganisms, environmental factors (e.g., temperature and CO2 levels), and chemical and nutrient composition. Thus, considering the complexity of using soil as substrates for plants as well as the mechanisms that these undergo during their growth stages, it is important to develop more resistant materials that remain stable under certain conditions. To test the stability of ZIF-8@MiZax-3, it was dissolved in a series of AA media and incubated it at 45° C. for 24 hours. Additionally, PBS and HEPES solutions were utilized to assess the thermal stability in biological and physiological conditions.\nA set of samples were prepared as follows: Aspartic acid (5 mM), Glutamine (5 mM), Histidine (5 mM), PBS (1×), Asparagine (5 mM), Glutamic acid (5 mM), Alanine (5 mM), HEPES (10 mM), Mixture of amino acids (5 mM) all in 5 mL of PBS and 1 drop of ethanol. Subsequently, the samples were vortexed for 10 seconds and incubated at 45° C. for 24 hours. […]\nA decrease in intensity around 283 nm wavelength and remarkable shifts in the absorbance maxima of MiZax-3 were readily observed after the incubation period. […]"}, "3T3 cells": {"test_system": "3T3 cells", "assay": "Cytotoxicity analysis, live-dead viability and CCK-8 assays", "format": "cell-based", "details": "viability after 24 hours", "description": "FIG. 10A illustrates a cytotoxicity analysis of precursor molecules, including Zn(NO3)2, 2-MIm, and MiZax-3, according to some embodiments. FIG. 10B illustrates a cytotoxicity analysis of ZIF-8 and ZIF-8@MiZax-3 complexes, according to some embodiments. Assessing the safety of this synthetic platform is critical. Accordingly, it is important to check if any of the materials or degraded building blocks are transferred from the rhizosphere to the actual fruit. For cytotoxicity analysis, live-dead viability and cell counting kit-8 (CCK-8) assays were performed according to the manufacturer's protocol. Briefly, 3T3 cells (1×10^4 cells per well) were seeded onto a 96-well plate. After 24 hours, cells were incubated with different concentrations (0.1, 0.5, 1, 5, 10, and 50 μg/mL) of ZIF-8 and ZIF-8 loaded with MiZax-3. In addition, to evaluate the cytotoxicity of the particles after degradation at low pH, 3T3 cells were incubated with Zn(NO3)2 and 2-MIm at concentrations of (0.01, 0.05, 0.1, 0.5, 1, 5, 10, and 50 μg/mL) and with MiZax-3 at (0.01, 0.05, 0.1, 0.5, 1, 5, 10, and 50 ng/mL). The cell viability was measured after 24 hours."}, "[3]": {"details": "fresh fruit, total number of plants n=24"}},
  "data": [
    {"smiles": "COc1ccc(Oc2cccc(/C=C/C(C)=O)c2)cc1", "note": "[MiZax-3, (E)-4-(3-(4-methoxyphenoxy)phenyl) but-3-en-2-one]", "values": [
      {"measurement": "Number of flower buds per individual", "setting": "[1]; 4WAT", "value": "significantly higher number of flower buds compared to the mock and ZIF-8 treated seedlings"},
      {"measurement": "Plant height", "setting": "[1]; 4WAT", "value": "significantly taller than mock and ZIF-8 treated plants"},
      {"measurement": "Average dry shoot biomass per individual plant", "setting": "[1]; 13WAT, compared to mock, no statistically significant difference", "value": "upwards trend"},
      {"measurement": "Plant health (appearance)", "setting": "[1]; 13WAT, versus mock", "value": "healthier than the mock plants"},
      {"measurement": "Average Total Fruit Number", "setting": "[1]; capsicum field trial, soil treatment", "value": 53.17},
      {"measurement": "Harvest-1", "setting": "[1]; [3]", "value": 4464.8, "unit": "g"},
      {"measurement": "Harvest-2", "setting": "[1]; [3]", "value": 5423.8, "unit": "g"},
      {"measurement": "Yield Enhancement", "setting": "[1]; total yield versus mock", "value": 31.76, "unit": "%"},
      {"measurement": "Total Yield", "setting": "[1]; two harvests, total number of plants n=24", "value": 9888.6, "unit": "g"},
      {"measurement": "MiZax-3 in pepper fruits of treated plants", "setting": "pepper fruits", "value": "no detectible MiZax-3"},
      {"measurement": "Shift of UV-vis absorption after thermal incubation", "setting": "[2]", "value": "significant wavelength shifts up to 332 nm"},
      {"measurement": "Concentration up to which high biocompatibility was exhibited", "setting": "3T3 cells", "value": "up to 50 ng/ml"}
    ]}
  ]
}
